The source of these data is patent US11951105B2 (Lake O'Hara LLC, priority 2020, dated 2024).

For series [1] the following is noted: brexpiprazole patients; cited from earlier work.
The nature of series [2]: PBPK modeling of schizophrenia patients treated according to modified dosing regimens. Further details: species or system human. Particulars: for Days Reduced to Reach Pharmacokinetic Endpoints: EC80 / Days Reduced to Reach Pharmacokinetic Endpoints: Steady State: modified regimen of Table F vs FDA label, Obese. The source says:
In order to simulate brexpiprazole under various conditions, a whole-body PBPK model was constructed to capture the drug's kinetics in major tissues. Model tissue compartments included adipose, bone, brain, large intestine, small intestine, heart, kidney, liver, lung, muscle, spleen, stomach, and skin tissues, as well as venous and arterial blood compartments. In order to accurately capture first-pass clearance effects on the drug, the model also included correct representation of the gastrointestinal tract organs and the liver. […] Drug distribution into each tissue compartment was modeled assuming perfusion-limited kinetics, with partitioning into tissue described by a partition coefficient (Kp) estimated using methods described by Poulin and Theil (2002). Brexpiprazole-specific biochemical parameters such as the log of octanol:water partition coefficient (log P), negative log acid dissociation constant (pKa), fraction unbound in the plasma (fup), blood:plasma concentration ratio (BP), and clearance were obtained from literature; additional physiochemical properties used to calculate Kps were obtained via DrugBank. […] Simulations were carried out in a virtual population of 500 normal-weight and 500 obese individuals with age- and sex-specific physiological parameters (i.e. tissue flows and volumes) sampled from the National Health and Nutrition Examination Survey (NHANES) dataset.
PBPK Modeling of Schizophrenia Patients Treated with Higher Doses According to Modified Methods
A modified dosing regimen was developed so that obese and CYP2D6 PM patients reach therapeutic levels earlier (Table F). […] On day 8, patients returned to administering the recommended dose once daily. […] On day 15, patients returned to administering the recommended dose once daily.

In another series the test system is CYP2D6. Particulars: cited from earlier work.
Another series has as its target CYP3A4 (Homo sapiens, UniProt P08684). To be noted: based on the literature; cited from earlier work.
The conditions of series [3]: cited from earlier work.

Each structure is given as a SMILES string.

Sequence of CYP3A4 (P08684 whole entry): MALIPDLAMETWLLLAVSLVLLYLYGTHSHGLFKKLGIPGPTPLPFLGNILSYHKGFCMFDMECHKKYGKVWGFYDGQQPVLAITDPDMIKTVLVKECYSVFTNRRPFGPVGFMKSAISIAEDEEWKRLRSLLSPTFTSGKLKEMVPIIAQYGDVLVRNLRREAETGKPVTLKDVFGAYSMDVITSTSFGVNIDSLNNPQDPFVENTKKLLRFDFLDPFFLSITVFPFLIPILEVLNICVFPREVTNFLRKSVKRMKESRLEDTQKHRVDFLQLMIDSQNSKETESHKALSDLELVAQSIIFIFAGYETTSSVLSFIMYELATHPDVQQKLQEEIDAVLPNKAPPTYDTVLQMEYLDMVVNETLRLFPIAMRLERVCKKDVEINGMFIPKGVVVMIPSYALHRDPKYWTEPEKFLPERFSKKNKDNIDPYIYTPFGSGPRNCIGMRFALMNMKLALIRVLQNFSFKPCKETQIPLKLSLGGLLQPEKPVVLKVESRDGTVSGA

In the case of `O=c1ccc2ccc(OCCCCN3CCN(c4cccc5sccc45)CC3)cc2[nH]1` [brexpiprazole, 7-{4-[4-(1-Benzothiophen-4-yl)piperazin-1-yl]butoxy}quinolin-2(1H)-one], in series [1], the akathisia rates entry is reported as “dose-dependent”. Besides, the “Days Reduced to Reach Pharmacokinetic Endpoints: EC80” value in series [2] (CYP2D6 EM) turned out to be 3 days; in series [2] (CYP2D6 PM), 5 days. The “Days Reduced to Reach Pharmacokinetic Endpoints: Steady State” value in series [2] (CYP2D6 EM) is -4 days; in series [2] (CYP2D6 PM), -29 days. Further, the “days faster to reach therapeutic concentrations than once daily dosing” value is listed as “three” in series [2] (schizophrenia, normal-weight CYP2D6 PM, Modified Dosing Regimen 3) and “five” in series [2] (schizophrenia, obese CYP2D6 PM, twice the daily doses for the first 14 days (Regimen 2)). The “days faster to reach therapeutic concentrations than with FDA label dosing” value in series [2] (schizophrenia, obese CYP2D6 EM, twice the daily doses for the first 7 days (Regimen 1)) is listed as “three”. In addition, the “decrease of baseline clearance by CYP2D6 PM status” value in the series on CYP2D6 (CYP2D6 poor metabolizers) is given as roughly 30%. The “share of brexpiprazole clearance due to CYP2D6” value in the series with CYP2D6 (based on the literature) is recorded as 43.3%. In addition, the “share of brexpiprazole clearance due to CYP3A4” value at CYP3A4 is given as 46.7%. Also, the “share of brexpiprazole clearance due to other routes” value in series [3] (based on the literature) is 10%. Further, the “effect of weight on the pharmacokinetics of brexpiprazole” value in series [3] (previous studies) is listed as “less than 20%”. The renal clearance in series [3] (share of clearance, model assumption) was roughly 1%.
